According to patent US5910504A, “Hetero-aromatic ring substituted phenyloxazolidinone antimicrobials” (Pharmacia & Upjohn, priority 1997, dated 1999):
Values after ≈ are worked out from the molar mass of the structure shown. Values joined by “and” are separate entries in the source; they are usually repeats but may differ in a detail not shown here. Identical values can stand only once. Like-named read-outs stand apart in the source and are kept apart here.

Tests used:
S. aureus, UC 9213 [1] = assay: In vitro activity: minimum inhibitory concentration (MIC) by agar dilution, S. aureus; assay type: cell-based; conditions: Staphylococcus aureus
Excerpt: (§1) The oxazolidinone antibacterial agents of this invention have useful activity against a variety of organisms. The in vitro activity of compounds of this invention can be assessed by standard testing procedures such as the determination of minimum inhibitory concentration (MIC) by agar dilution as desribed in "Methods for Dilution Antimicrobial Susceptibility Tests for Bacteria That Grow Aerobically" (MFT) published January 1983 by the National Committee for Clinical Laboratory Standards, 771 East Lancaster Avenue, Villanova, Pa. 19084, USA. The activity of selected compounds of this invention against Staphylococcus aureus and Streptococcus pneumoniae are shown in Table 1.

S. pneumoniae, UC 9912 = assay: In vitro activity: minimum inhibitory concentration (MIC) by agar dilution, S. pneumoniae; assay type: cell-based; conditions: Streptococcus pneumoniae
Excerpt: as §1

S. aureus, UC 9213 [2] = assay: In vivo antimicrobial activity, Murine Assay procedure; set-up: species or system Staphylococcus aureus (infected female mice); conditions: oral or subcutaneous; for ED50: Staphylococcus aureus, UC9213, 144 h
Experimental: Antimicrobial activity was tested in vivo using the Murine Assay procedure. Groups of female mice (six mice of 18-20 grams each) were injected intraperitoneally with bacteria which were thawed just prior to use and suspended in brain heart infusion with 4% brewers yeast UC9213 (Staphylococcus aureus) or brain heart infusion (Streptococcus species). Antibiotic treatment at six dose levels per drug was administered one hour and five hours after infection by either oral intubation or subcutaneous ("subcut.") routes. Survival was observed daily for six days. ED50 values based on mortality ratios were calculated using probit analysis. The subject compounds were compared against a well-known antimicrobial (Vancomycin) as a control.

[3] = UC9213, agar dilution, read-out: Minimum Inhibitory Concentration, S. aureus, UC 9213
[4] = UC9912, agar dilution, read-out: Minimum Inhibitory Concentration, S. pneumoniae, UC 9912
[5] = female mice, i.p. infection, drug 1 h and 5 h after infection, six-day survival, probit, read-out: ED50, S. aureus, UC 9213

## CC(=O)NC[C@H]1CN(c2ccc(-n3cccc3)c(F)c2)C(=O)O1 [Example 1, (S)-N-[[3-[3-Fluro-4-(1H-pyrrol-1-yl)phenyl]-2-oxo-5-oxazolidinyl]methyl]acetamide]
S. aureus, UC 9213 [1]; [3]
  MIC: < 0.5 µg/mL
S. pneumoniae, UC 9912; [4]
  MIC: < 0.5 µg/mL

## CC(=O)NC[C@H]1CN(c2ccc(-n3cccn3)c(F)c2)C(=O)O1 [Example 2, (S)-N-[[3-[3-Fluoro-4-(1H-pyrazol-1-yl)phenyl]-2-oxo-5-oxazolidinyl]methyl]acetamide]
S. aureus, UC 9213 [1]; [3]
  MIC: 2 µg/mL (≈ 6.28 µM)
S. pneumoniae, UC 9912; [4]
  MIC: 1 µg/mL (≈ 3.14 µM)

## CC(=O)NC[C@H]1CN(c2ccc(-n3ccnc3)c(F)c2)C(=O)O1 [Example 3, (S)-N-[[3-[3-Fluoro-4-(1H-imidazol-1-yl)phenyl]-2-oxo-5-oxazolidinyl]methyl]acetamide]
S. aureus, UC 9213 [1]; [3]
  MIC: 2 µg/mL (≈ 6.28 µM)
S. pneumoniae, UC 9912; [4]
  MIC: < 0.5 µg/mL
S. aureus, UC 9213 [2]; [5]
  ED50: 9.5 mg/kg

## CC(=O)NC[C@H]1CN(c2ccc(-n3cncn3)c(F)c2)C(=O)O1 [Example 4, (S)-N-[[3-[3-Fluoro-4-(1H-1,2,4-triazol-1-yl)phenyl]-2-oxo-5-oxazolidinyl]methyl]acetamide]
S. aureus, UC 9213 [1]; [3]
  MIC: 4 µg/mL (≈ 12.5 µM)
S. pneumoniae, UC 9912; [4]
  MIC: 1 µg/mL (≈ 3.13 µM)
S. aureus, UC 9213 [2]; [5]
  ED50: 5.7 mg/kg

## CC(=O)NC[C@H]1CN(c2ccc(-n3ccc4ccccc43)c(F)c2)C(=O)O1 [Example 5, (S)-N-[[3-[3-Fluoro-4-(1H-indol-1-yl)phenyl]-2-oxo-5-oxazolidinyl]methyl]acetamide]
S. aureus, UC 9213 [1]; [3]
  MIC: 4 µg/mL (≈ 10.9 µM)
S. pneumoniae, UC 9912; [4]
  MIC: 1 µg/mL (≈ 2.72 µM)

## CC(=O)NC[C@H]1CN(c2ccc(-n3ccnn3)c(F)c2)C(=O)O1 [Example 6, (S)-N-[[3-[3-Fluoro-4-(1H-1,2,3-triazol-1-yl)phenyl]-2-oxo-5-oxazolidinyl]methyl]acetamide]
S. aureus, UC 9213 [1]; [3]
  MIC: 1 µg/mL (≈ 3.13 µM)
S. pneumoniae, UC 9912; [4]
  MIC: < 0.5 µg/mL
S. aureus, UC 9213 [2]; [5]
  ED50: 4.7 mg/kg

## O=C(NC[C@H]1CN(c2ccc(-n3ccnn3)c(F)c2)C(=O)O1)C(Cl)Cl [Example 7, (S)-N-[[3-[3-Fluoro-4-(1H-1,2,3-triazol-1-yl)phenyl]-2-oxo-5-oxazolidinyl]methyl]-2,2-dichloroacetamide]
S. aureus, UC 9213 [1]; [3]
  MIC: 1 µg/mL (≈ 2.58 µM)
S. pneumoniae, UC 9912; [4]
  MIC: < 0.5 µg/mL
S. aureus, UC 9213 [2]; [5]
  ED50: 11.9 mg/kg

## CC(=O)NC[C@H]1CN(c2ccc(-n3nccn3)c(F)c2)C(=O)O1 [Example 8, (S)-N-[[3-[3-Fluoro-4-(2H-1,2,3-triazol-2-yl)phenyl]-2-oxo-5-oxazolidinyl]methyl]acetamide]
S. aureus, UC 9213 [1]; [3]
  MIC: 4 µg/mL (≈ 12.5 µM)
S. pneumoniae, UC 9912; [4]
  MIC: 1 µg/mL (≈ 3.13 µM)

## CC(=O)NC[C@H]1CN(c2ccc(-n3cnnc3S)c(F)c2)C(=O)O1 [Example 9, (S)-N-[[3-[3-Fluoro-4-(3-mercapto-4H-1,2,4-triazol-4-yl)phenyl]-2-oxo-5-oxazolidinyl]methyl]acetamide]
S. aureus, UC 9213 [1]; [3]
  MIC: > 32 µg/mL
S. pneumoniae, UC 9912; [4]
  MIC: 8 µg/mL (≈ 22.8 µM)

## CSc1nncn1-c1ccc(N2C[C@H](CNC(C)=O)OC2=O)cc1F [Example 10, (S)-N-[[3-[3-Fluoro-4-(3-methylthio-4H-1,2,4-triazol-4-yl)phenyl]-2-oxo-5-oxazolidinyl]methyl]acetamide]
S. aureus, UC 9213 [1]; [3]
  MIC: 8 µg/mL (≈ 21.9 µM)
S. pneumoniae, UC 9912; [4]
  MIC: 1 µg/mL (≈ 2.74 µM)

## CC(=O)NC[C@H]1CN(c2ccc(-n3cnnc3)c(F)c2)C(=O)O1 [Example 11, (S)-N-[[3-[3-Fluoro-4-(4H-1,2,4-triazol-4-yl)phenyl]-2-oxo-5-oxazolidinyl]methyl]acetamide]
S. aureus, UC 9213 [1]; [3]
  MIC: > 16 µg/mL
S. pneumoniae, UC 9912; [4]
  MIC: 1 µg/mL (≈ 3.13 µM)

## CC(=O)NC[C@H]1CN(c2ccc(-n3ccc(C=O)c3)c(F)c2)C(=O)O1 [Example 12, (S)-N-[[3-[3-Fluoro-4-(1H-pyrrol-1-yl-3-carboxaldehyde)phenyl]-2-oxo-5-oxazolidinyl]methyl]acetamide]
S. aureus, UC 9213 [1]; [3]
  MIC: 0.25 µg/mL (≈ 0.724 µM)
S. pneumoniae, UC 9912; [4]
  MIC: < 0.06 µg/mL

## CC(=O)NC[C@H]1CN(c2ccc(-n3ccc(CO)c3)c(F)c2)C(=O)O1 [Example 13, (S)-N-[[3-[3-Fluoro-4-(3-hydroxymethyl-1H-pyrrol-1-yl)phenyl]-2-oxo-5-oxazolidinyl]methyl]acetamide]
S. aureus, UC 9213 [1]; [3]
  MIC: 1 µg/mL (≈ 2.88 µM)
S. pneumoniae, UC 9912; [4]
  MIC: 0.25 µg/mL (≈ 0.72 µM)

## COC(=O)c1ccn(-c2ccc(N3C[C@H](CNC(C)=O)OC3=O)cc2F)c1 [Example 14, (S)-N-[[3-[3-Fluoro-4-(3-carbomethoxy-1H-pyrrol-1-yl)phenyl]-2-oxo-5-oxazolidinyl]methyl]acetamide]
S. aureus, UC 9213 [1]; [3]
  MIC: 2 µg/mL (≈ 5.33 µM)
S. pneumoniae, UC 9912; [4]
  MIC: 0.25 µg/mL (≈ 0.666 µM)

## CON=Cc1ccn(-c2ccc(N3C[C@H](CNC(C)=O)OC3=O)cc2F)c1 [Example 15, (S)-N-[[3-[3-Fluoro-4-(1H-pyrrol-1-yl-3-carboxaldehyde)phenyl]-2-oxo-5-oxazolidinyl]methyl]acetamide, methoxime]
S. aureus, UC 9213 [1]; [3]
  MIC: 1 µg/mL (≈ 2.67 µM)
S. pneumoniae, UC 9912; [4]
  MIC: 0.25 µg/mL (≈ 0.668 µM)
S. aureus, UC 9213 [2]; [5]
  ED50: 7.3 mg/kg

## CC(=O)NC[C@H]1CN(c2ccc(-n3ccc(C=NO)c3)c(F)c2)C(=O)O1 [Example 16, (S)-N-[[3-[3-Fluoro-4-(3-(hydroxyiminomethyl)-1H-pyrrol-1-yl)phenyl]-2-oxo-5-oxazolidinyl]methyl]acetamide]
S. aureus, UC 9213 [1]; [3]
  MIC: 1 µg/mL (≈ 2.78 µM)
S. pneumoniae, UC 9912; [4]
  MIC: < 0.25 µg/mL
S. aureus, UC 9213 [2]; [5]
  ED50: 5.5 mg/kg

## CC(=O)NC[C@H]1CN(c2ccc(-n3cc(C(C)=O)nn3)c(F)c2)C(=O)O1 [Example 17, (S)-N-[[3-[3-Fluoro-4-(4-acetyl-1H-1,2,3-triazol-1-yl)phenyl]-2-oxo-5-oxazolidinyl]methyl]acetamide]
S. aureus, UC 9213 [1]; [3]
  MIC: 1 µg/mL (≈ 2.77 µM)
S. pneumoniae, UC 9912; [4]
  MIC: 0.5 µg/mL (≈ 1.38 µM)

## CC(=O)NC[C@H]1CN(c2ccc(-n3cc(C(C)O)nn3)c(F)c2)C(=O)O1 (stereo partly drawn) [Example 18, (S)-N-[[3-[3-Fluoro-4-(4-(1-hydroxyethyl)-1H-1,2,3-triazol-1-yl)phenyl]-2-oxo-5-oxazolidinyl]methyl]acetamide]
S. aureus, UC 9213 [1]; [3]
  MIC: 4 µg/mL (≈ 11 µM)
S. pneumoniae, UC 9912; [4]
  MIC: 0.5 µg/mL (≈ 1.38 µM)

## CC(=O)NC[C@H]1CN(c2ccc(-n3cc(C(C)=NO)nn3)c(F)c2)C(=O)O1 [Example 19]
S. aureus, UC 9213 [1]; [3]
  MIC: 4 µg/mL (≈ 10.6 µM)
S. pneumoniae, UC 9912; [4]
  MIC: 0.5 µg/mL (≈ 1.33 µM)

## COC(=O)c1cn(-c2ccc(N3C[C@H](CNC(C)=O)OC3=O)cc2F)nn1 [Example 20, (S)-N-[[3-[3-Fluoro-4-(4-carbomethoxy-1H-1,2,3-triazol-1-yl)phenyl]-2-oxo-5-oxazolidinyl]methyl]acetamide]
S. aureus, UC 9213 [1]; [3]
  MIC: 4 µg/mL (≈ 10.6 µM)
S. pneumoniae, UC 9912; [4]
  MIC: 1 µg/mL (≈ 2.65 µM)

## CC(=O)NC[C@H]1CN(c2ccc(-n3cc(C=O)nn3)c(F)c2)C(=O)O1 [Example 21, (S)-N-[[3-[3-Fluoro-4-(1H-1,2,3-triazol-1-yl-4-carboxaldehyde)phenyl]-2-oxo-5-oxazolidinyl]methyl]acetamide]
S. aureus, UC 9213 [1]; [3]
  MIC: 0.5 µg/mL (≈ 1.44 µM)
S. pneumoniae, UC 9912; [4]
  MIC: 0.25 µg/mL (≈ 0.72 µM)

## CC(=O)NC[C@H]1CN(c2ccc(-n3cc(CO)cn3)c(F)c2)C(=O)O1 [Example 22, (S)-N-[[3-[3-Fluoro-4-(4-hydroxymethyl-1H-pyrazol-1-yl)phenyl]-2-oxo-5-oxazolidinyl]methyl]acetamide]
S. aureus, UC 9213 [1]; [3]
  MIC: 8 µg/mL (≈ 23 µM)
S. pneumoniae, UC 9912; [4]
  MIC: 0.5 µg/mL (≈ 1.44 µM)

## CCOC(=O)C=Cc1ccn(-c2ccc(N3C[C@H](CNC(C)=O)OC3=O)cc2F)c1 [Example 23, (S)-N-[[3-[3-Fluoro-4-[3-(2-carboethoxyvinyl)-1H-pyrrol-1-yl]phenyl]-2-oxo-5-oxazolidinyl]methyl]acetamide]
S. aureus, UC 9213 [1]; [3]
  MIC: 4 µg/mL (≈ 9.63 µM)
S. pneumoniae, UC 9912; [4]
  MIC: 0.5 µg/mL (≈ 1.2 µM)

## CCOC(=O)CCc1ccn(-c2ccc(N3C[C@H](CNC(C)=O)OC3=O)cc2F)c1 [Example 24, (S)-N-[[3-[3-Fluoro-4-[3-(2-carboethoxyethyl)-1H-pyrrol-1-yl]phenyl]-2-oxo-5-oxazolidinyl]methyl]acetamide]
S. aureus, UC 9213 [1]; [3]
  MIC: 4 µg/mL (≈ 9.58 µM)
S. pneumoniae, UC 9912; [4]
  MIC: 0.5 µg/mL (≈ 1.2 µM)

## CC(=O)NC[C@H]1CN(c2ccc(-n3ccc(CCCO)c3)c(F)c2)C(=O)O1 [Example 25, (S)-N-[[3-[3-Fluoro-4-[3-(3-hydroxypropyl)-1H-pyrrol-1-yl]phenyl]-2-oxo-5-oxazolidinyl]methyl]acetamide]
S. aureus, UC 9213 [1]; [3]
  MIC: 4 µg/mL (≈ 10.7 µM)
S. pneumoniae, UC 9912; [4]
  MIC: 0.5 µg/mL (≈ 1.33 µM)

## CC(=O)NC[C@H]1CN(c2ccc(-n3ccc(CCCNS(C)(=O)=O)c3)c(F)c2)C(=O)O1 [Example 26, (S)-N-[[3-[3-Fluoro-4-[3-(3-methanesulfonylaminopropyl)-1H-pyrrol-1-yl]phenyl]-2-oxo-5-oxazolidinyl]methyl]acetamide]
S. aureus, UC 9213 [1]; [3]
  MIC: 8 µg/mL (≈ 17.7 µM)
S. pneumoniae, UC 9912; [4]
  MIC: 0.5 µg/mL (≈ 1.1 µM)

## CN[C@H](CC(C)C)C(=O)N[C@H]1C(=O)N[C@@H](CC(N)=O)C(=O)N[C@H]2C(=O)N[C@H]3C(=O)N[C@H](C(=O)N[C@H](C(=O)O)c4cc(O)cc(O)c4-c4cc3ccc4O)[C@H](O)c3ccc(c(Cl)c3)Oc3cc2cc(c3O[C@@H]2O[C@H](CO)[C@@H](O)[C@H](O)[C@H]2O[C@H]2C[C@](C)(N)[C@H](O)[C@H](C)O2)Oc2ccc(cc2Cl)[C@H]1O [Vancomycin, reference compound]
S. aureus, UC 9213 [1]; UC9213, read-out: Minimum Inhibitory Concentration, S. aureus, UC 9213
  MIC: 1 µg/mL (≈ 0.69 µM)
S. pneumoniae, UC 9912; UC9912, read-out: Minimum Inhibitory Concentration, S. pneumoniae, UC 9912
  MIC: 0.5 µg/mL (≈ 0.345 µM)
S. aureus, UC 9213 [2]; read-out: Control, ED50, control drug run alongside each test compound, S. aureus UC 9213, female mice
  ED50: 2.2 mg/kg
S. aureus, UC 9213 [2]; control drug run alongside each test compound, S. aureus UC 9213, female mice, 8640 min
  Control, ED50: 2.4 mg/kg and 2.0 mg/kg and 1.2 mg/kg
